# In ChEMBL document CHEMBL5032522, “N-2-(phenylamino) benzamide derivatives as novel anti-glioblastoma agents: Synthesis and biological evaluation” (Eur J Med Chem, 2021):
# Activity calls are given as the source filed them. The rule behind the calls is not given here.
# How the values were obtained:
# [1] = molecular target: T1, Prostaglandin G/H synthase 2 (Homo sapiens, UniProt P35354); assay: Inhibition of human recombinant COX-2 using arachidonic acid as substrate preincubated 10 mins followed by substrate addition and measured after 2 mins by ELISA
# T1 sequence (P35354 whole entry): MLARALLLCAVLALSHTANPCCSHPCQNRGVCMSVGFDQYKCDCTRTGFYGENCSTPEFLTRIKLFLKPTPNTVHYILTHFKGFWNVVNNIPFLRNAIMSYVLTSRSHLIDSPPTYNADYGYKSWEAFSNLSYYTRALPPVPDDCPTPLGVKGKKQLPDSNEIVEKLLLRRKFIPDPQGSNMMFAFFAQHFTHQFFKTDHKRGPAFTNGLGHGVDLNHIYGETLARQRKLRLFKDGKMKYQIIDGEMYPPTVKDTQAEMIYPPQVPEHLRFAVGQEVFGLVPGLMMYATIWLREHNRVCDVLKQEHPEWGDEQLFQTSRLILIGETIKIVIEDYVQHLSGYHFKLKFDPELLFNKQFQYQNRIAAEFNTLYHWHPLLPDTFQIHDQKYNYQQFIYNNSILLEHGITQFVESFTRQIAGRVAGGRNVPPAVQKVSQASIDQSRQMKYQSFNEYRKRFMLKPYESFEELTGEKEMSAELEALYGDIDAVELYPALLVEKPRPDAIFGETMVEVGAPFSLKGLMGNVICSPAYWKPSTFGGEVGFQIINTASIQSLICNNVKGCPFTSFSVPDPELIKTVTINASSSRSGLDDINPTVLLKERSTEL
# C6 = assay: Antiproliferative activity against rat C6 cells assessed as inhibition of cell growth measured after 72 hrs by CCK-8 assay; format: functional, cell-based; details: C6, 72 h
# DNA topoisomerase 1 = molecular target: T2, DNA topoisomerase 1 (Homo sapiens, UniProt P11387); assay: Inhibition of human topoisomerase I using DNA pBR322 as substrate assessed as DNA relaxation incubated for 45 mins by ethidium bromide staining based agarose gel electrophoresis
# T2 sequence (P11387 whole entry): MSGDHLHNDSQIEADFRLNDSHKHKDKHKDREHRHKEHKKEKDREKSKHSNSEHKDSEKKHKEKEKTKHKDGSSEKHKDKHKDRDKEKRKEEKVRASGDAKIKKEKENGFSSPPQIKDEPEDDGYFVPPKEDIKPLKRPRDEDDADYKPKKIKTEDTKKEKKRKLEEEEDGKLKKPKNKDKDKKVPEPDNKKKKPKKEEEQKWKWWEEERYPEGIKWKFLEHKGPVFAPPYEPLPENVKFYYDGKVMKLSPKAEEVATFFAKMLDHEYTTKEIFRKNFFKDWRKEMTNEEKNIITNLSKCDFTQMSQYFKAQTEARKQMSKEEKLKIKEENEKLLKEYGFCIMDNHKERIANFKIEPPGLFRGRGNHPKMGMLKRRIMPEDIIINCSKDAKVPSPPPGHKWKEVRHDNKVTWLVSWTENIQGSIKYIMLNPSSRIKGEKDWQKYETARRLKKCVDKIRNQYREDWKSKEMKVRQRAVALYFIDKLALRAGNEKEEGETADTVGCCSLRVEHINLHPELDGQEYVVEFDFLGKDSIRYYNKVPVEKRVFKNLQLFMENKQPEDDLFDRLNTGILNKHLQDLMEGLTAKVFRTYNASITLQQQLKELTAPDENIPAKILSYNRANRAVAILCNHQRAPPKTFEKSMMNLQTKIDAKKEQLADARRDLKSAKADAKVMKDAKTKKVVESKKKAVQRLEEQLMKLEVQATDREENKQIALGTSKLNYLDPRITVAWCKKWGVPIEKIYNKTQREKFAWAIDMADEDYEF
# U-251 [2] = assay: Antiproliferative activity against human U-251 cells assessed as inhibition of cell growth measured after 72 hrs by CCK-8 assay; format: functional, cell-based; details: U-251, 72 h
# U-87 MG [3] = assay: Antiproliferative activity against human U-87 MG cells assessed as inhibition of cell growth measured after 72 hrs by CCK-8 assay; format: functional, cell-based, U-87MG ATCC
# [4] = molecular target: T3, DNA topoisomerase 1 (Homo sapiens) (UniProt P11387); assay: Inhibition of human topoisomerase I using DNA pBR322 as substrate assessed as DNA intercalation at 100 uM incubated for 30 mins by ethidium bromide staining based agarose gel electrophoresis method
# T3 sequence (whole entry): T2 sequence (P11387 whole entry)
# [5] = Toxicity in Sprague-Dawley rat inoculated with C6 cells assessed as reduction in body weight at 50 mg/kg, ip bid administered for 14 days; format: organism-based; details: in vivo, 336 h, time 14 day
# [6] = molecular target: T4, Prostaglandin G/H synthase 2 (Rattus norvegicus) (UniProt P35355); assay: In vivo inhibition of COX2 in ip dosed orthotopic Sprague-Dawley rat model inoculated with C6 cells assessed as reduction in PGE2 production by ELISA; format: functional, organism-based
# T4 sequence (whole entry): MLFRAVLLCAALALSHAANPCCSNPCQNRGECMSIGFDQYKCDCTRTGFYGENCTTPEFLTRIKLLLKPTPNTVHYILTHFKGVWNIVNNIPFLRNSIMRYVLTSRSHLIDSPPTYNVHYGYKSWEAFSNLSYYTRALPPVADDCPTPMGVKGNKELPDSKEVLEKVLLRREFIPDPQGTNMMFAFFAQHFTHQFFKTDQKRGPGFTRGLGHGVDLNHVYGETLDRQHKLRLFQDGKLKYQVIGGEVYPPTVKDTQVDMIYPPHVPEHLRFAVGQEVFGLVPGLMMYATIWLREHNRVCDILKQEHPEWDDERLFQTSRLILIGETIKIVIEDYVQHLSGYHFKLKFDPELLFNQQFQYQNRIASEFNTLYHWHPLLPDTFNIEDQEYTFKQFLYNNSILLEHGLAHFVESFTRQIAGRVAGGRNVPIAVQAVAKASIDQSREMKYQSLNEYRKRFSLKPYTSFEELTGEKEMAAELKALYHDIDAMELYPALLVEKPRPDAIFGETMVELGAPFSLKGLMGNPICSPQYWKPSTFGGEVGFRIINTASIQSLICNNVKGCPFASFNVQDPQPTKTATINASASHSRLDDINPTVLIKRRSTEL
# U-251 [7] = assay: Inhibition of cell migration in human U-251 cells incubated for 24 hrs by crystal violet staining based light microscopic analysis; format: functional
# U-87 MG [8] = assay: Inhibition of cell migration in human U-87 MG cells incubated for 24 hrs by crystal violet staining based light microscopic analysis; format: functional; details: U-87MG ATCC
# U-87 MG [9] = assay: Inhibition of cell invasion in human U-87 MG cells incubated for 24 hrs by crystal violet staining based light microscopic analysis; format: functional; details: U-87MG ATCC
# U-251 [10] = assay: Inhibition of cell invasion in human U-251 cells incubated for 24 hrs by crystal violet staining based light microscopic analysis; format: functional
compound,measurement,setting,value
COc1ccc(NC(=O)c2cccnc2Nc2cccc(C(F)(F)F)c2)cc1,IC50,[1],> 150 µM
same,IC50,C6,> 200 µM
same,IC50,DNA topoisomerase 1,108 µM
same,IC50,U-251 [2],> 200 µM
same,IC50,U-87 MG [3],> 200 µM
COc1ccc(CNC(=O)c2ccccc2Nc2ccccc2)cc1,IC50,[1],17.4 µM
same,IC50,C6,> 200 µM
same,IC50,DNA topoisomerase 1,> 125 µM
same,IC50,U-251 [2],> 200 µM
same,IC50,U-87 MG [3],> 200 µM
COc1ccc(NC(=O)c2ccccc2Nc2cccc(Cl)c2C)cc1OC,IC50,[1],92.6 µM
same,IC50,C6,44 µM
same,IC50,DNA topoisomerase 1,> 125 µM
same,IC50,U-251 [2],> 200 µM
same,IC50,U-87 MG [3],99.8 µM
COc1ccc(NC(=O)c2ccccc2Nc2cccc(C(F)(F)F)c2)cc1,IC50,[1],> 150 µM
same,IC50,C6,99.1 µM
same,IC50,DNA topoisomerase 1,> 125 µM
same,IC50,U-251 [2],> 200 µM
same,IC50,U-87 MG [3],142 µM
COc1ccc(NC(=O)c2ccccc2Nc2cccc(Cl)c2)cc1,IC50,[1],> 150 µM
same,IC50,C6,> 200 µM
same,IC50,DNA topoisomerase 1,85.7 µM
same,IC50,U-251 [2],165 µM
same,IC50,U-87 MG [3],> 200 µM
COc1ccc(CCCNC(=O)c2ccccc2Nc2ccccc2)cc1,IC50,[1],> 150 µM
same,IC50,C6,> 200 µM
same,IC50,DNA topoisomerase 1,> 125 µM
same,IC50,U-251 [2],> 200 µM
same,IC50,U-87 MG [3],> 200 µM
COc1ccc(NC(=O)c2ccccc2Nc2cccc(C)c2C)cc1,IC50,[1],> 150 µM
same,IC50,C6,> 200 µM
same,IC50,DNA topoisomerase 1,> 125 µM
same,IC50,U-251 [2],138 µM
same,IC50,U-87 MG [3],73.5 µM
COc1cc(NS(C)(=O)=O)ccc1Nc1c2ccccc2nc2ccccc12,inhibition,[4],Active
COc1ccc(NC(=O)c2cccnc2Nc2cccc(Cl)c2C)cc1,IC50,[1],> 150 µM
same,IC50,C6,> 200 µM
same,IC50,DNA topoisomerase 1,61.2 µM
same,IC50,U-251 [2],> 200 µM
same,IC50,U-87 MG [3],187 µM
COc1ccc(NC(=O)c2ccccc2Nc2ccccc2)cc1,IC50,[1],> 150 µM
same,IC50,C6,> 200 µM
same,IC50,DNA topoisomerase 1,> 125 µM
same,IC50,U-251 [2],184 µM
same,IC50,U-87 MG [3],> 200 µM
Cn1nnc2c(C(N)=O)ncn2c1=O [TEMOZOLOMIDE],Activity,[5],Toxic
same,inhibition,[6],inactive
CSc1ccc(NC(=O)c2ccccc2Nc2cccc(C(F)(F)F)c2)cc1,IC50,[1],> 150 µM
same,IC50,C6,> 200 µM
same,IC50,DNA topoisomerase 1,> 125 µM
same,IC50,U-251 [2],92.4 µM
same,IC50,U-87 MG [3],> 200 µM
COc1ccc(NC(=O)c2ccccc2Nc2cccc(Cl)c2C)c(OC)c1,IC50,[1],115 µM
same,IC50,C6,> 200 µM
same,IC50,DNA topoisomerase 1,70.9 µM
same,IC50,U-251 [2],> 200 µM
same,IC50,U-87 MG [3],> 200 µM
O=C(Nc1ccc2c(c1)OCO2)c1ccccc1Nc1cccc(C(F)(F)F)c1,IC50,[1],105 µM
same,IC50,C6,15.6 µM
same,IC50,DNA topoisomerase 1,105 µM
same,IC50,U-251 [2],12.9 µM
same,IC50,U-87 MG [3],26 µM
COc1ccc(NC(=O)c2ccccc2Nc2cccc(C(F)(F)F)c2)cc1OC,IC50,[1],> 150 µM
same,IC50,C6,36.5 µM
same,IC50,DNA topoisomerase 1,> 125 µM
same,IC50,U-251 [2],86.2 µM
same,IC50,U-87 MG [3],72.4 µM
COc1ccc(NC(=O)c2ccccc2NCc2ccccc2)cc1,IC50,[1],> 150 µM
same,IC50,C6,> 200 µM
same,IC50,DNA topoisomerase 1,> 125 µM
same,IC50,U-251 [2],> 200 µM
same,IC50,U-87 MG [3],> 200 µM
COc1ccc(NC(=O)c2ccccc2Nc2cccc(C)c2C)cc1OC,IC50,[1],48.1 µM
same,IC50,C6,169 µM
same,IC50,DNA topoisomerase 1,85.6 µM
same,IC50,U-251 [2],> 200 µM
same,IC50,U-87 MG [3],144 µM
Cc1c(Cl)cccc1Nc1ccccc1C(=O)O [TOLFENAMIC ACID],IC50,C6,> 100 µM
same,IC50,U-251 [2],> 100 µM
same,IC50,U-87 MG [3],> 100 µM
COc1ccc(CCNC(=O)c2ccccc2Nc2ccccc2)cc1,IC50,[1],> 150 µM
same,IC50,C6,130 µM
same,IC50,DNA topoisomerase 1,107 µM
same,IC50,U-251 [2],> 200 µM
same,IC50,U-87 MG [3],> 200 µM
COc1cc(NC(=O)c2ccccc2Nc2cccc(C(F)(F)F)c2)cc(OC)c1OC,IC50,[1],> 150 µM
same,IC50,C6,75.2 µM
same,IC50,DNA topoisomerase 1,> 125 µM
same,IC50,U-251 [2],50.7 µM
same,IC50,U-87 MG [3],52.1 µM
COc1cc(NC(=O)c2ccccc2Nc2cccc(Cl)c2C)cc(OC)c1OC,IC50,[1],117 µM
same,IC50,C6,> 200 µM
same,IC50,DNA topoisomerase 1,50.9 µM
same,IC50,U-251 [2],178 µM
same,IC50,U-87 MG [3],54.5 µM
CC[C@@]1(O)C(=O)OCc2c1cc1n(c2=O)Cc2cc3c(CN(C)C)c(O)ccc3nc2-1 [TOPOTECAN],IC50,C6,5.8 µM
same,IC50,U-251 [2],0.37 µM
same,IC50,U-87 MG [3],0.06 µM
c1ccc(-c2cc(-c3ccccc3)c3ncccc3n2)cc1,IC50,[1],> 150 µM
same,inhibition,U-251 [7],Dose-Dependent Effect
same,inhibition,U-87 MG [8],Dose-Dependent Effect
same,IC50,C6,103 µM
same,IC50,DNA topoisomerase 1,> 125 µM
same,IC50,U-251 [2],> 200 µM
same,inhibition,U-87 MG [9],Dose-Dependent Effect
same,inhibition,U-251 [10],Dose-Dependent Effect
same,IC50,U-87 MG [3],> 200 µM
same,inhibition,[4],inactive
